Test results as given in ChEMBL document CHEMBL1201862, “PubChem BioAssay data set” (2004).
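1) Cells in 96-well plates. 2) Compound, 48 h, 5 concentrations. 3) Linear interpolation between surrounding doses. 4) Unreached endpoint = highest concentration. GI50 = concentration required for 50% inhibition of growth.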 Active and inactive are the calls of the source. No stated cut-off is given here; in the data, active = GI50 up to about 1.1 µM and inactive = higher.

Key:
Assay in all cases: inhibition of tumour cell growth, NCI panel, 48 h
CAKI-1 = system: CAKI-1
HOP-62 = system: HOP-62
HT-29 = system: HT-29
KM-20L2 = system: KM-20L2
M19-MEL = system: M19-MEL
MCF7 = system: MCF7
Malme-3M = system: Malme-3M
NCI-H226 = system: NCI-H226
NCI-H23 = system: NCI-H23
NCI-H460 = system: NCI-H460
NCI-H522 = system: NCI-H522
OVCAR-5 = system: OVCAR-5
OVCAR-8 = system: OVCAR-8
SK-MEL-5 = system: SK-MEL-5
SN12C = system: SN12C
SNB-78 = system: SNB-78
U-251 = system: U-251
UACC-257 = system: UACC-257
M14 = system: M14
XF498 = system: XF498

Measured: GI50

C=C1C(=O)OC2C=C(C)CC3C=C(CCC=C(C)CCC12)C(=O)O3 (stereo not given)
inactive: CAKI-1 54.7 µM | HOP-62 114 µM | HT-29 67 µM | KM-20L2 52.7 µM | M19-MEL 58.3 µM | MCF7 47.5 µM | Malme-3M 46.1 µM | NCI-H226 72.8 µM | NCI-H23 49.3 µM | NCI-H460 67.5 µM | NCI-H522 17.3 µM | OVCAR-5 101 µM | OVCAR-8 72.3 µM | SK-MEL-5 67.9 µM | SN12C 69 µM | SNB-78 66.4 µM | U-251 65 µM | UACC-257 43.1 µM

C=CCNC(=O)CN(CC(=O)OC)C1CCCCC1N(CC(=O)OC)CC(=O)OC (stereo not given)
inactive: CAKI-1 > 100 µM | HOP-62 > 100 µM | HT-29 > 100 µM | M14 > 100 µM | MCF7 > 100 µM | Malme-3M > 100 µM | NCI-H226 > 100 µM | NCI-H23 > 100 µM | NCI-H460 > 100 µM | NCI-H522 > 100 µM | OVCAR-5 > 100 µM | OVCAR-8 > 100 µM | SK-MEL-5 > 100 µM | SN12C > 100 µM | U-251 > 100 µM | UACC-257 > 100 µM

CC(C)CNC1=NCC(C)S1 (stereo not given)
inactive: CAKI-1 > 100 µM | HOP-62 > 100 µM | HT-29 > 100 µM | M14 > 100 µM | MCF7 > 100 µM | Malme-3M > 100 µM | NCI-H226 > 100 µM | NCI-H23 > 100 µM | NCI-H460 > 100 µM | NCI-H522 > 100 µM | OVCAR-5 > 100 µM | SK-MEL-5 > 100 µM | U-251 > 100 µM | UACC-257 > 100 µM

O=C1C(Cl)N(c2ccccc2Cl)C1c1c[nH]c2ccccc12 (stereo not given)
inactive: HOP-62 > 100 µM | HT-29 > 100 µM | KM-20L2 > 100 µM | M14 > 100 µM | M19-MEL > 100 µM | Malme-3M > 100 µM | NCI-H23 > 100 µM | NCI-H460 > 100 µM | NCI-H522 > 100 µM | OVCAR-8 > 100 µM | SK-MEL-5 > 100 µM | SN12C > 100 µM | U-251 > 100 µM | UACC-257 > 100 µM | XF498 > 100 µM

CNC(=O)N(C)COC
inactive: CAKI-1 > 100 µM | HOP-62 > 100 µM | HT-29 > 100 µM | KM-20L2 > 100 µM | M14 > 100 µM | M19-MEL > 100 µM | Malme-3M > 100 µM | NCI-H226 > 100 µM | NCI-H460 > 100 µM | NCI-H522 > 100 µM | OVCAR-5 > 100 µM | OVCAR-8 > 100 µM | SN12C > 100 µM | SNB-78 > 100 µM | U-251 > 100 µM | UACC-257 > 100 µM | XF498 > 100 µM

C#CC[N+](CCO)(CCO)CCCCCCCCCCCCCCCCCC
inactive: CAKI-1 5.87 µM | HOP-62 11.4 µM | HT-29 4.59 µM | KM-20L2 7.1 µM | M19-MEL 9.16 µM | MCF7 14.8 µM | Malme-3M 18.4 µM | NCI-H226 12.6 µM | NCI-H23 13.8 µM | NCI-H460 9.53 µM | NCI-H522 6.85 µM | OVCAR-5 14.8 µM | OVCAR-8 16.1 µM | SK-MEL-5 15.7 µM | SN12C 16.4 µM | SNB-78 6.53 µM | U-251 6.47 µM | UACC-257 15.8 µM | XF498 4.43 µM

Cc1cn(Cc2cn(CC3OC(n4cc(C)c(=O)[nH]c4=O)CC3O)nn2)c(=O)[nH]c1=O (stereo not given)
inactive: CAKI-1 > 100 µM | HOP-62 > 100 µM | M14 > 100 µM | MCF7 > 100 µM | Malme-3M > 100 µM | NCI-H226 > 100 µM | NCI-H23 > 100 µM | OVCAR-5 > 100 µM | OVCAR-8 > 100 µM | SK-MEL-5 > 100 µM | SN12C > 100 µM | U-251 > 100 µM | UACC-257 > 100 µM

CCOc1ccc2nc(NC(=O)C(=O)C(C(=O)c3ccccc3F)C3OC(=O)c4ccccc43)sc2c1 (stereo not given)
inactive: CAKI-1 31.8 µM | HOP-62 23.5 µM | KM-20L2 27.9 µM | M14 16.5 µM | M19-MEL 12.1 µM | NCI-H226 5.01 µM | NCI-H460 17.5 µM | NCI-H522 14 µM | OVCAR-8 16 µM | SK-MEL-5 15.9 µM | SN12C 16.4 µM | SNB-78 17.5 µM | U-251 11.1 µM | UACC-257 41.3 µM | XF498 24.1 µM

O=C(O)CN1CCN(CC(=O)O)CCN(CC(=O)O)CC1
inactive: CAKI-1 8890 µM | HOP-62 > 100 µM | HT-29 3.55 µM | M14 38.3 µM | MCF7 5.65 µM | Malme-3M > 28.7 µM | NCI-H23 28.6 µM | NCI-H460 3.49 µM | NCI-H522 5.22 µM | OVCAR-5 > 32 µM | OVCAR-8 4.07 µM | SK-MEL-5 2.79 µM | SN12C > 100 µM | U-251 16.4 µM | UACC-257 58.7 µM

O=c1c2cccnc2oc2c(Cl)cc(-c3nnn[nH]3)cc12
inactive: CAKI-1 > 100 µM | HOP-62 > 100 µM | HT-29 > 100 µM | M14 > 100 µM | Malme-3M > 100 µM | NCI-H226 > 100 µM | NCI-H23 > 100 µM | OVCAR-5 > 100 µM | OVCAR-8 > 100 µM | SK-MEL-5 > 100 µM | SN12C > 100 µM

CC1OC(CO)(n2cnc3c(N)ncnc32)C(O)C1O (stereo not given)
inactive: CAKI-1 > 100 µM | HOP-62 > 100 µM | HT-29 > 100 µM | KM-20L2 > 100 µM | M19-MEL > 100 µM | MCF7 > 100 µM | Malme-3M > 100 µM | NCI-H226 > 100 µM | NCI-H23 > 100 µM | NCI-H460 > 100 µM | NCI-H522 > 100 µM | OVCAR-5 > 100 µM | OVCAR-8 > 100 µM | SK-MEL-5 > 100 µM | SN12C > 100 µM | SNB-78 > 100 µM | U-251 > 100 µM | UACC-257 > 100 µM | XF498 > 100 µM

C=C(/C=C/C=C(\C)CCC=C(C)C)[C@@H]1CC[C@]2([C@H](CCCO)/C(=C(/C)C=O)CC[C@]2(C)O)[C@@H]1O
inactive: CAKI-1 28 µM | HT-29 15.8 µM | KM-20L2 29.3 µM | M14 21.7 µM | M19-MEL > 10 µM | Malme-3M 11.8 µM | NCI-H226 24 µM | NCI-H23 19.5 µM | NCI-H460 9.71 µM | NCI-H522 16.7 µM | OVCAR-5 61.8 µM | OVCAR-8 20.6 µM | SK-MEL-5 22.6 µM | SN12C 17.1 µM | SNB-78 17.7 µM | U-251 14.9 µM | UACC-257 22.6 µM | XF498 18.7 µM
